Measurements: PMC8008885 (Journal of Enzyme Inhibition and Medicinal Chemistry, 2021)
Read-outs that look alike come from different tables or passages of the source.

Key:
[1] = Pharmacokinetics after intravenous and oral administration to SD rats; assay type: in vivo, Sprague-Dawley (SD) male rats; conditions: rat, 10 mg/kg; for Kp at 2 h: brain/plasma, read-out: Brain-to-plasma (B/P) ratio at 2 h; for half-life: read-out: Terminal half-life
Excerpt: It is well known that the blood–brain barrier (BBB) is a key obstacle impeding the entry of drugs into the brain.

[2] = system: striatum of YAC128 mice; assay: Histology and immunohistochemistry of the striatum of YAC128 mice (Nissl, H3K9me3, DARPP-32, calbindin, DAPI, SUV39H1); assay type: in vivo, mouse
Procedure: YAC128 mice were bred with females from their background strain (B6CBAFI/J), and offspring were genotyped using PCR as previously described. All mice were weighed at 3 weeks of age and equally distributed according to weight and percentage within each cohort. […] The biochemical and behavioural/neuropathological symptoms of mice were determined after 4 weeks of drug administration. These procedures were performed in accordance with Guide for the Care and Use of Laboratory Animals guidelines. The animal protocol was approved by IACUC (Institutional Animal Care and Use Committee) in Hanyang University, Ansan, Republic of Korea.
Immunofluorescence staining and confocal microscopy was used to determine the trimethylated-histone H3 (Lys9) (H3K9me3) (Millipore, Billerica, MA) (1:1000). The procedures were performed as previously described. The specimens were incubated for 1 h with Alexa Fluor 594 goat anti-rabbit antibody (abcam, Cambridge, UK; 1:400) after incubation of the primary antibody. Images were analysed using an A1 Nikon confocal laser scanning microscope (Nikon, Tokyo, Japan).
DARPP-32 is a dopamine- and cAMP-regulated neuronal phosphoprotein, which plays an important role in dopamine neurotransmission. Its expression is severely impaired in the striatum of YAC128 mice compared with that of WT mice.
White nodes are interacting genes with the seed genes identified by the network analysis algorithm of IPA. The network represented dense connections between the epigenome associated with chromatin modification (such as Suv39h1, Mecp2, KDM5c, etc.), transcription regulation (such as Elk1, Foxp4, Hoxa6, Dhx9, etc.), metabolic process (such as Acsl4, Fbp2, Nat2, etc.), and signal transduction pathways (such as Cnksr2, Dusp9, Rab9, etc.) (Figure 8(d)). Especially, SUV39H1, a histone H3K9 methyltransferase, was closely associated with signalling pathways and other modules (Figure 8(d)). We further verified that SUV39H1 immunoreactivity was markedly elevated in YAC128 mice (Figure 8(e)).

[3] = target: SETDB1 enzyme (Homo sapiens, UniProt Q15047); assay: biochemical
Procedure: SETDB1 enzyme activity was analysed using commercially available SETBD1 chemiluminescent assay kit (BPS Bioscience, San Diego, CA, #51056) according to the manufacturer’s instructions. All analyses were performed in duplicates and all reagents used are supplied in the kit. […] Total 50 µL mixture of histone methylation transfer buffer (50 mM Tris–HCl, pH 9.0, 1 mM phenylmethylsulfonyl fluoride, and 0.5 mM dithiothreitol) containing 20 µM SAM, each concentration of inhibitors and 1.25 ng/µL SETDB1 enzyme was added to each well of a 96-well plate. The wells were pre-coated with histone H3 peptide substrate. Reactions were allowed to proceed for 1 h 30 min at room temperature. Methylated K9 residue of H3 peptide was detected with anti-methylated H3K9 primary antibody and HRP-conjugated secondary antibody. Chemiluminescence resulting from the reaction between the HRP-conjugated secondary antibody and the added HRP substrate was measured using a SpectraMax M2 plate reader (Molecular Devices, Sunnyvale, CA).
The inhibitory activity at each concentration was recorded by detecting chemiluminescence signal after treatment of H3K9 antibody followed by addition of the HRP substrate.

[4] = system: Q111 cells; assay: FRET-based histone H3K9 methylation biosensor live cell imaging
Procedure: Fluorescence resonance energy transfer (FRET)-based histone H3K9 methylation biosensor was previously described. In brief, H3K9 biosensor is composed of a methyl-lysine binding domain of HP1 protein and a H3 tail peptide containing lysine9 between ECFP and YPet, and the NLS sequences were added in the C-terminal for the nucleus localisation of the biosensor. For the image acquisition, Q7 or Q111 cells were cultured on cover-glass-bottom dishes and the H3K9 biosensor was transfected into the cells using Lipofectamine 2000 (Invitrogen, Carlsbad, CA) according to the manufacturer’s protocols. Images were collected by a Nikon Ti-E inverted microscope with 420DF20 excitation filter, 450DRLP dichroic mirror, and two emission filters (475DF40 for ECFP and 535DF25 for YPet) controlled by a filter changer. Image analysis was performed using NIS element-AR software. Nucleus regions were selected as the regions of interests and the emission ratio of ECFP and YPet was calculated after background subtraction. The colour of each pixel was determined by the ECFP/YPet ratio value.
(§1) Moreover, the promoter assay was carried out.

[5] = system: HD (Q111/Q111) striatal cells; assay: Western blot analysis of SETDB1 protein and H3K9me3 level in HD (Q111) cells; assay type: cell-based; conditions: HD (Q111) cell
Procedure: Cells were homogenised with Dounce homogeniser in […] of phosphate-buffered saline containing 0.4 mM sodium butyrate, 5% Triton X-100, 3 mM DTT, 1 mM sodium orthovanadate, 5 mM sodium fluoride, 3 mM PMSF, 3 mM DTT, 0.5 mg/ml leupeptin, and 10 mg/ml aprotinin as previously described. The nuclear pellets were collected and washed twice with the above-described 5% Triton buffer. Histones were extracted by solubilising in […] of 0.2 M HCl on a shaker for 2 h. After neutralising the pH of the acid-extracted solution containing the histone pool with ammonium acetate, the protein content was quantified. Each histone extract (an amount of […]) was placed onto each well of the dot blot apparatus pre-assembled with a nitrocellulose membrane and vacuumed for 30 min. After releasing the vacuum, the nitrocellulose membrane was removed and washed twice with TBS-T for 5 min. Then, the nitrocellulose membrane was blocked with 5% milk/TBS-T for 30 min and subsequently incubated with primary antibody in 5% milk/TBS-T for 24 h at cold room. The nitrocellulose membrane was washed twice with TBS-T for 5 min and incubated with secondary antibody in 1% milk (15 ml) for one hour at room temperature. After washing the membrane twice with TBS-T for 5 min, the immune reactivity was developed with Chemiluminescent Kit. […]

[6] = system: SETDB1/ESET promoter; assay: SETDB1/ESET promoter assay; assay type: cell-based; conditions: neuronal cells transfected with SETDB1 promoter construct, 0 to 20 µM
Procedure: STHdh^Q7/Q7 (wild type) and STHdh^Q111/Q111 (HD knock-in striatal cell line expresses mutant huntingtin at endogenous level) were generously provided from Dr. Marcy MacDonald (Harvard Medical School, Boston, MA)[35]. The SETDB1/ESET promoter assay was performed as previously described[24]^,[28]. Briefly, 2.5 × 10^5 cells were plated onto 48-well cell culture plates 24 h prior to the transfection of 200 ng of ETDB1/ESET promoter construct. DMRIE-C reagent (Invitrogen, Carlsbad, CA) was used as a transfection reagent and transfections were performed according to the manufacturer’s protocol. Nogalamycin and distamycin were purchased from Sigma-Aldrich (St. Louis, MO).
as §1

[7] = male, Sprague-Dawley, plasma, intravenous
[8] = male, Sprague-Dawley, plasma, oral
[9] = male, Sprague-Dawley, intravenous, plasma
[10] = male, Sprague-Dawley, oral, plasma

C=CCOc1cccc2nc(N3CCCC3)ccc12 [APQ, 5-allyloxy-2-(pyrrolidin-1-yl)quinoline]
Kp at 2 h ([1]; male, Sprague-Dawley, intravenous): 4.18 | Kp at 2 h ([1]; male, Sprague-Dawley, oral): 0.44 | concentration at 2 h ([1]; male, Sprague-Dawley, brain, intravenous, read-out: Brain concentration at 2 h): 407 ng/mL | concentration at 2 h ([1]; male, Sprague-Dawley, brain, oral, read-out: Brain concentration at 2 h): 3.7 ± 1.1 ng/mL | MRT [1, 7]: 1.6 h | clearance [1, 7]: 183 ± 26.1 mL/min/kg | concentration at 8 h [1, 7]: 20 ng/mL | concentration at 2 h ([1]; male, Sprague-Dawley, plasma, intravenous, read-out: Plasma concentration at 2 h): 100 ng/mL | half-life [1, 7]: 2.55 ± 0.101 h | Vd ([1]; male, Sprague-Dawley, plasma, intravenous, read-out: Vss): 25.6 ± 5.2 L/kg | bioavailability ([1]; male, Sprague-Dawley, plasma, oral vs intravenous, read-out: F (bioavailability)): 6.7% | Cmax [1, 8]: 40 ± 10 ng/mL | concentration at 8 h [1, 8]: 0 ng/mL | Tmax ([1]; male, Sprague-Dawley, plasma, oral, median (range)): 1 h | concentration at 2 h ([1]; male, Sprague-Dawley, plasma, oral, read-out: Plasma concentration at 2 h): 10 ng/mL | half-life [1, 8]: 1.58 ± 0.223 h | AUC(0-inf) [1, 9]: 923 ng·h/mL | AUC(0-t) [1, 9]: 858 ng·h/mL | AUC(0-inf) [1, 10]: 61.7 ng·h/mL | AUC(0-t) [1, 10]: 60.7 ng·h/mL | Ae (excreted amount) ([1]; intravenous): 0.00% | Brain concentration at 2 h ([1]; intravenous): 406.6 ± 81.3 ng/mL | Plasma concentration at 2 h ([1]; intravenous): 100 ± 10 ng/mL | Ae (excreted amount) ([1]; oral): 0.00% | DARPP-32 expression in the striatum [2]: considerably improved | immunoreactive intensity of calbindin stained neurons [2]: increased | nuclei size of medium spiny neurons (DAPI) [2]: restores | H3K9me3 immunoreactivity in striatal neurons ([2]; comparable to the level of WT controls): significantly reduced | level of SUV39H1 (immunoreactivity) in striatal neurons ([2]; similar to the level in WT mice): significantly reduced | neuronal atrophy / size of striatal medium spiny neurons (Nissl staining) ([2]; striatum): significantly restored | IC50 [3]: 65 µM | FRET/ECFP ratios of H3K9 methylation [4]: effectively modulates | H3K9me3 level [5]: reduced | SETDB1 protein levels ([5]; dose-dependent): significantly decreased | transcriptional activity of SETDB1 (promoter assay) [6]: represses the transcriptional activity of SETDB1 in a dose-dependent manner
